From patent US8993585B2, “Cyclic amine substituted pyrimidinediamines as PKC inhibitors” (Rigel Pharmaceuticals, Inc., priority 2007, dated 2015)

Experiments:
PKC theta = biological target: T1, PKC theta (Homo sapiens, UniProt Q04759); assay: PKC assay, fluorescence polarization (Example 2), PKC theta; type: biochemical; conditions: 5 μM ATP
T1 construct: purchased Upstate Biotechnologies, Temecula, CA 14-444
Experimental: The inhibition of PKC activity was measured by monitoring the production of phosphorylated peptide by fluorescence polarization at different concentrations of the inhibitor. Reactions were carried out in 96-well plate format with a total volume of 20 μL containing 20 mM HEPES, pH 7.4, 5 mM MgCl2, 0.2 mM CaCl2, 1 mM DTT, 0.02% Brij-35, 0.1 mg/mL phosphatidylserine, 0.02 mg/mL dioleoyl-sn-glycerol and 5 μM each of ATP and the peptide substrate. Compounds were first diluted serially in DMSO and then transferred to a solution containing the above concentrations of HEPES, MgCl2, CaCl2, DTT, and Brij-35 to yield 5× compound solutions in 2% DMSO, which was then added to the reaction solution. Reactions were initiated by the addition of PKC at a typical concentration as described in Table VI, and then allowed to incubate at room temperature for 20 min. At the end of this time, a combination of quench (EDTA) and detection (peptide tracer and antibody) reagents was added using the protocol of Invitrogen P2748.

Human primary T cells = assay: IL-2 ELISA, Human Primary T Cell, Anti-CD3+CD28+ (Example 3); type: cell-based; conditions: anti-CD3+CD28 stimulation
Procedure, shortened: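 Human primary T cells, 100,000 per well, were pre-incubated with compound in Yssel's medium for 1 h at 37 °C. The counter-assay used 0.5 ng/ml PMA with 0.1 uM ionomycin final.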

T1 sequence (Q04759 whole entry): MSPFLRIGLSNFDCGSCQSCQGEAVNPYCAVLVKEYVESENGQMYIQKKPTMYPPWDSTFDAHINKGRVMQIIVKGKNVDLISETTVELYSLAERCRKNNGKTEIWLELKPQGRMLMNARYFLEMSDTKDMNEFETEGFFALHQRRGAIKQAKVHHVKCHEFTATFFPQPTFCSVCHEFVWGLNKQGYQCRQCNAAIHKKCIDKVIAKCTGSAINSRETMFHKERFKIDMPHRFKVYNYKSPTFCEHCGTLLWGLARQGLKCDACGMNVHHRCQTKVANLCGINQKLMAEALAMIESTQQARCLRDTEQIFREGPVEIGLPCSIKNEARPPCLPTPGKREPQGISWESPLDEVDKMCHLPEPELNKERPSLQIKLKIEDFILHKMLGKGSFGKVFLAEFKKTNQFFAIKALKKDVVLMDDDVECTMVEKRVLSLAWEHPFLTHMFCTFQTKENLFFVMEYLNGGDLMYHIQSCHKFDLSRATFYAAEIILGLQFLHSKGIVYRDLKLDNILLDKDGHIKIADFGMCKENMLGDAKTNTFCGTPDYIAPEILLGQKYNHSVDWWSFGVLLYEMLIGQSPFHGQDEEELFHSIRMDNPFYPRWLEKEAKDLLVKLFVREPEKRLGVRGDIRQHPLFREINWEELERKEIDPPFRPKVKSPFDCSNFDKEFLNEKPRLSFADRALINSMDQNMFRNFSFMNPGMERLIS

| Compound | IC50 (PKC theta) [nM] | IC50 (Human primary T cells; 24 hours) [nM] | IC50 (Human primary T cells; Homo sapiens, T-cell, 24 h) [nM] | other results |
| --- | --- | --- | --- | --- |
| CN1CCN(c2ccc(Nc3ncc(F)c(NC4CC(C)(C)N(C)C(C)(C)C4)n3)cc2OC(F)F)CC1 [Compound I-236] | 2.41 | 121 | – | – |
| CN1C(C)(C)CC(Nc2nc(Nc3cccc(S(N)(=O)=O)c3)ncc2F)CC1(C)C [Compound I-10] | 70 | – | 1880 | – |
| CCN1C(=O)C(C)(C)Oc2cc(Nc3ncc(OC)c(NC4CC(C)(C)N(C)C(C)(C)C4)n3)ccc21 [II-130] | 10.1 | – | 720 | – |
| CCCN1CCN(c2ccc(Nc3ncc(F)c(NC4CC(C)(C)N(C)C(C)(C)C4)n3)cc2Cl)CC1 [Compound I-249] | 13.7 | – | 136 | – |
| Cc1ccc(Nc2ncc(F)c(NC3CC(C)(C)N(C)C(C)(C)C3)n2)cc1S(N)(=O)=O [Compound I-11] | 52 | – | 1570 | – |
| Cc1cc(C)cc(Nc2ncc(F)c(NC3CC(C)(C)N(C)C(C)(C)C3)n2)c1 [Compound I-12] | 22 | – | 341 | – |
| COc1ccc(Nc2ncc(F)c(NC3CC(C)(C)N(C)C(C)(C)C3)n2)cc1Cl [Compound I-20] | 5 | – | 113 | – |
| CN1C(C)(C)CC(Nc2nc(Nc3ccc(OC(F)(F)F)c(-c4cccnc4)c3)ncc2F)CC1(C)C [Compound I-208] | 52 | – | 467 | – |
| CN1CCN(c2ccc(Nc3ncc(F)c(NC4CCN(CCO)CC4)n3)cc2C(F)(F)F)CC1 [III-7, 5-Fluoro-N4-[1-(2-hydroxyethyl)piperidin-4-yl]-N2-[4-(4-methylpiperazino)-3-trifluoromethyl]phenyl-2,4-pyrimidinediamine] | 254 | – | 1140 | – |
| CN1C(C)(C)CC(Nc2nc(Nc3cc(-c4cnn(C)c4)cc(C(F)(F)F)c3)ncc2F)CC1(C)C [Compound I-204] | 82.9 | – | 440 | – |
| CN1C(C)(C)CC(Nc2nc(Nc3cccc(OC(F)F)c3)ncc2F)CC1(C)C [Compound I-234] | 13.6 | – | 222 | – |
| CN1C(C)(C)CC(Nc2nc(Nc3ccc(Cl)c(C#N)c3)ncc2F)CC1(C)C [Compound I-163] | 3.8 | – | 290 | – |
| CN1C(C)(C)CC(Nc2nc(Nc3ccc(N4CCN(S(C)(=O)=O)CC4)c(C#N)c3)ncc2Cl)CC1(C)C [Compound I-175] | 7.11 | – | 205 | – |
| CN1C(C)(C)CC(Nc2nc(Nc3cc(-c4ccoc4)cc(C(F)(F)F)c3)ncc2F)CC1(C)C [Compound I-203] | 92 | – | 427 | – |
| CN1C(=O)COc2cc(Nc3ncc(F)c(NC4CC(C)(C)N(C)C(C)(C)C4)n3)ccc21 [II-6] | 6.06 | – | 244 | – |
| CN1C(C)(C)CC(Nc2nc(Nc3cccc(-c4cnco4)c3)ncc2F)CC1(C)C [Compound I-100] | 34.4 | – | 494 | – |
| CN1C(C)(C)CC(Nc2nc(Nc3ccc(-c4cnn(C)c4)c(Cl)c3)ncc2F)CC1(C)C [Compound I-157] | 3.1 | – | 242 | – |
| CCCN1CCN(c2cc(Nc3ncc(F)c(NC4CC(C)(C)N(C)C(C)(C)C4)n3)ccc2Cl)CC1 [Compound I-56] | – | 2380 | – | – |
| CN1C(C)(C)CC(Nc2nc(Nc3ccc(Br)c(F)c3)ncc2F)CC1(C)C [Compound I-110] | – | 491 | – | – |
| COc1ccc(Nc2ncc(F)c(N(Cc3ccc4ccccc4c3)C3CC(C)(C)N(C)C(C)(C)C3)n2)cc1OC(F)F [Compound I-316] | – | – | 3440 | – |
| COc1cc(Nc2ncc(F)c(N(Cc3ccc4ccccc4c3)C3CC(C)(C)N(C)C(C)(C)C3)n2)cc(OC)c1 [Compound I-314] | – | – | 2570 | – |
| COc1ccc(Nc2ncc(F)c(NC3CC(C)(C)N(C)C(C)(C)C3)n2)cc1OC(F)F [Compound I-359] | – | – | – | IC50 (Human primary T cells; 24 hours, citrate salt): 118 nM |
| CN1C(C)(C)CC(Nc2nc(Nc3ccc(C(=O)NCc4cccnc4)cc3)ncc2F)CC1(C)C [Compound I-367] | – | 3700 | – | – |
| COc1cc(Nc2ncc(F)c(NC3CC(C)(C)N(C)C(C)(C)C3)n2)ccc1-n1cccc1 [Compound I-349] | – | 1040 | – | – |
| CN1C(C)(C)CC(Nc2nc(Nc3cc(Cl)cc(Cl)c3)ncc2F)C1(C)C (stereo not drawn) [Compound I-279, 5-Fluoro-N2-(3,5-dichloro) phenyl-N4-(1,2,2,5,5-pentamethylpyrrolidin-3-yl)-2,4-pyrimidinediamine] | – | 7440 | – | – |
| CN1C(C)(C)CC(Nc2nc(Nc3ccc(N4CCN(S(C)(=O)=O)CC4)c(Cl)c3)ncc2[N+](=O)[O-])CC1(C)C [Compound I-73] | – | 665 | – | – |
| CN1C(C)(C)CC(Nc2nc(Nc3ccc(-n4cnnn4)cc3)ncc2F)CC1(C)C [Compound I-400] | – | 1690 | – | – |
| COc1cc(Nc2ncc(OC)c(NC3CC(C)(C)N(C)C(C)(C)C3)n2)cc(-n2nnnc2C)c1 [Compound I-424] | – | – | 1010 | – |

| Compound | IC50 (PKC theta) [nM] | IC50 (Human primary T cells; 24 hours) [nM] | IC50 (Human primary T cells; Homo sapiens, T-cell, 24 h) [nM] | other results |
| --- | --- | --- | --- | --- |
| C#Cc1cnc(Nc2cc(OC)cc(OC)c2)nc1NC1CC(C)(C)N(C)C(C)(C)C1 [Compound I-433] | – | – | 2350 | – |
| CN1C(C)(C)CC(Nc2nc(Nc3ccc(C(F)(F)F)c(C(F)(F)F)c3)ncc2F)CC1(C)C [Compound I-410] | – | 1440 | – | – |
| CC1(C)CC(Nc2nc(Nc3cccc(-n4cnnn4)c3)ncc2F)CC(C)(C)N1 [Compound I-391] | – | 220 | – | – |
| CCN1C(=O)C(C)(C)Oc2cc(Nc3ncc(F)c(NC4CC(C)(C)N(C)C(C)(C)C4)n3)cnc21 [II-55] | – | – | 258 | – |
| CN1C(C)(C)CC(N(Cc2ccc(-c3ccccc3C#N)cc2)c2nc(Nc3ccc4c(c3)OCCO4)ncc2F)CC1(C)C [II-91] | – | – | 3860 | – |
| Cc1cccc2sc(Nc3ncc(F)c(NC4CC(C)(C)N(C)C(C)(C)C4)n3)nc12 [II-19] | – | – | 890 | – |
| CC(C)OC(=O)COc1ccc(Nc2ncc(F)c(NC3CC(C)(C)N(C)C(C)(C)C3)n2)cc1 [Compound I-135] | – | 4640 | – | – |
| CN1CCN(c2ccc(Nc3ncc([N+](=O)[O-])c(NC4CC(C)(C)N(C)C(C)(C)C4)n3)cc2Cl)CC1 [Compound I-76] | – | 596 | – | – |
| Cc1ccc(Nc2ncc(F)c(NC3CC(C)(C)N(CCC(=O)O)C(C)(C)C3)n2)cc1C#N [Compound I-306] | – | – | 10500 | – |
| CN1C(C)(C)CC(Nc2nc(Nc3ccc4c(c3)oc(=O)n4CCF)ncc2F)CC1(C)C [II-172] | – | – | 750 | – |
| CN1C(C)(C)CC(Nc2nc(Nc3ccc(C(=O)NC4CC4)c(C(F)(F)F)c3)ncc2F)CC1(C)C [Compound I-230] | – | 1090 | – | – |
| COc1ccc(Nc2ncc(F)c(NC3CC(C)(C)N(C)C(C)(C)C3)n2)cn1 [Compound I-345] | – | – | 5320 | – |
| CN1C(C)(C)CC(Nc2nc(Nc3cc(OCC(F)(F)F)cc(OCC(F)(F)F)c3)ncc2C#N)CC1(C)C [Compound I-411] | – | 280 | – | – |
| CC1(C)CC(Nc2nc(Nc3cc(Cl)cc(Cl)c3)ncc2F)CC(C)(C)N1CCC(=O)O [Compound I-304] | – | – | 9510 | – |
| CN1C(C)(C)CC(Nc2nc(Nc3ccc4c(c3)OCCO4)ncc2Br)CC1(C)C [II-127] | – | – | 450 | – |
| CN1C(C)(C)CC(Nc2nc(N[C@@H]3CCc4ccccc43)ncc2F)CC1(C)C [II-84] | – | – | 17500 | – |
| CC(=O)N1CCN(c2ccc(Nc3ncc(F)c(NC4CC(C)(C)N(C)C(C)(C)C4)n3)cc2C(F)(F)F)CC1 [Compound I-49] | – | 284 | – | – |
| COC(=O)CCN1C(C)(C)CC(Nc2nc(Nc3ccc4c(c3)OCCO4)ncc2F)CC1(C)C [II-10] | – | – | 7240 | – |
| CN1C(C)(C)CC(N(Cc2ccc3ccccc3c2)c2nc(Nc3ccc4c(c3)OCCO4)ncc2F)CC1(C)C [II-87] | – | – | 3810 | – |
| CCc1cc(Nc2ncc(F)c(NC3CC(C)(C)N(C)C(C)(C)C3)n2)cc(C#N)c1Cl [Compound I-128] | – | 876 | – | – |
| CN1C(C)(C)CC(Nc2nc(Nc3ccc(-c4cnn(C)c4)c(F)c3)ncc2F)CC1(C)C [Compound I-150] | – | 701 | – | – |
| COc1cc(Nc2ncc(F)c(N(Cc3cc4c(cc3Br)OCO4)C3CC(C)(C)N(C)C(C)(C)C3)n2)cc(OC)c1 [Compound I-323] | – | – | 4710 | – |
| CC(C)N1C(=O)C2(CCC2)Oc2cc(Nc3ncc(F)c(NC4CC(C)(C)N(C)C(C)(C)C4)n3)ccc21 [II-165] | – | 410 | – | – |
| Cc1cnc(Nc2cccc(S(N)(=O)=O)c2)nc1NC1CC(C)(C)N(C)C(C)(C)C1 [Compound I-14] | – | 9840 | – | – |
| COC(=O)CCN1C(C)(C)CC(Nc2nc(Nc3cc(OC)cc(OC)c3)ncc2F)CC1(C)C [Compound I-292] | – | – | 2480 | – |
| COc1cc(O)cc(Nc2ncc(F)c(NC3CC(C)(C)NC(C)(C)C3)n2)c1 [Compound I-453] | – | – | 1050 | – |
| COc1cc(Nc2ncc(F)c(NC3CC(C)(C)N(C)C(C)(C)C3)n2)cc(OC)c1OC [Compound I-19] | – | 1230 | – | – |
